Reference: patent publication US9926282B2, “Phthalazinones and isoquinolinones as rock inhibitors” (BRISTOL-MYERS SQUIBB COMPANY, priority 2013, dated 2018)

Assays:
[1] = molecular target: ROCK1 (Homo sapiens (Human), UniProt Q13464); assay: ROCK assay (LABCHIP peptide phosphorylation), ROCK1; format: biochemical; settings: 5 μM ATP, 1.5 μM peptide substrate; read-out: ROCK1 IC50
[2] = molecular target: ROCK2 (Homo sapiens (Human), UniProt O75116); assay: ROCK assay (LABCHIP peptide phosphorylation), ROCK2; format: biochemical; settings: 5 μM ATP, 1.5 μM peptide substrate
Sequence of ROCK2 (O75116 whole entry, species assumed): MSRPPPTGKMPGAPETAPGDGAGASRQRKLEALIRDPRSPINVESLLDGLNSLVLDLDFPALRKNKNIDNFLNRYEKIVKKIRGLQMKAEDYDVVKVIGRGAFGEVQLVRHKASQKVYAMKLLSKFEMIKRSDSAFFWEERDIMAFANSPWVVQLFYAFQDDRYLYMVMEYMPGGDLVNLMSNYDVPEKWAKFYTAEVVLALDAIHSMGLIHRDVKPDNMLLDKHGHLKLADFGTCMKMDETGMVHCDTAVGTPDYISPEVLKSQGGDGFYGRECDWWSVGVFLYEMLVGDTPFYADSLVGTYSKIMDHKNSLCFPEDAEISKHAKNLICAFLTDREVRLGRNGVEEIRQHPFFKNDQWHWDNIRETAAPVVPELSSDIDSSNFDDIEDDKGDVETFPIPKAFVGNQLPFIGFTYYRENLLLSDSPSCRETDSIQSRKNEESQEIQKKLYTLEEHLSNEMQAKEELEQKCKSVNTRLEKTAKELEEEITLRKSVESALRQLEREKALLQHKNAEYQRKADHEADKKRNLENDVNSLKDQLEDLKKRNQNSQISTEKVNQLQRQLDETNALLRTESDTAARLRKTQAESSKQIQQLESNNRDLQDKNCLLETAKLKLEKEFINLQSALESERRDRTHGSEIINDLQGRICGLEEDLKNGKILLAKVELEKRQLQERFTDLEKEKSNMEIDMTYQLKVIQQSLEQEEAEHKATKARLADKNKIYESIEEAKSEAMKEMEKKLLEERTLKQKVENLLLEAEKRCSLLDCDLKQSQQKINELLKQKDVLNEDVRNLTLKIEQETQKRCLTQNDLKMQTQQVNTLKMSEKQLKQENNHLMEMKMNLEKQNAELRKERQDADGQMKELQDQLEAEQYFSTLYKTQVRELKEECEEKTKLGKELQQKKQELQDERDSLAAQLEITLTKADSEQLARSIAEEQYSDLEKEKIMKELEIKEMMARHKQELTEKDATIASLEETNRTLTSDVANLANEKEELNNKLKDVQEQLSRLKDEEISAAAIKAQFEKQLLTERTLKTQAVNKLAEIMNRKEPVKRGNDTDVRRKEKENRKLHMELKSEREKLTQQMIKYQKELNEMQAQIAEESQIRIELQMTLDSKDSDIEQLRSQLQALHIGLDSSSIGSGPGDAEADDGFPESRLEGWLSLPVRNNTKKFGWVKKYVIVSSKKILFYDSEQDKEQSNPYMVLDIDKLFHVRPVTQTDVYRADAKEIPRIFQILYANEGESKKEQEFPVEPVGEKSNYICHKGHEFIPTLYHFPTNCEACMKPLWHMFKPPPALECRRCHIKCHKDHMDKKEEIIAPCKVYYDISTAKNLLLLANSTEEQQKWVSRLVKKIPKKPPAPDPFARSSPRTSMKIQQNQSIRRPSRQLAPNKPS

Sequence of ROCK1 (Q13464 whole entry, species assumed): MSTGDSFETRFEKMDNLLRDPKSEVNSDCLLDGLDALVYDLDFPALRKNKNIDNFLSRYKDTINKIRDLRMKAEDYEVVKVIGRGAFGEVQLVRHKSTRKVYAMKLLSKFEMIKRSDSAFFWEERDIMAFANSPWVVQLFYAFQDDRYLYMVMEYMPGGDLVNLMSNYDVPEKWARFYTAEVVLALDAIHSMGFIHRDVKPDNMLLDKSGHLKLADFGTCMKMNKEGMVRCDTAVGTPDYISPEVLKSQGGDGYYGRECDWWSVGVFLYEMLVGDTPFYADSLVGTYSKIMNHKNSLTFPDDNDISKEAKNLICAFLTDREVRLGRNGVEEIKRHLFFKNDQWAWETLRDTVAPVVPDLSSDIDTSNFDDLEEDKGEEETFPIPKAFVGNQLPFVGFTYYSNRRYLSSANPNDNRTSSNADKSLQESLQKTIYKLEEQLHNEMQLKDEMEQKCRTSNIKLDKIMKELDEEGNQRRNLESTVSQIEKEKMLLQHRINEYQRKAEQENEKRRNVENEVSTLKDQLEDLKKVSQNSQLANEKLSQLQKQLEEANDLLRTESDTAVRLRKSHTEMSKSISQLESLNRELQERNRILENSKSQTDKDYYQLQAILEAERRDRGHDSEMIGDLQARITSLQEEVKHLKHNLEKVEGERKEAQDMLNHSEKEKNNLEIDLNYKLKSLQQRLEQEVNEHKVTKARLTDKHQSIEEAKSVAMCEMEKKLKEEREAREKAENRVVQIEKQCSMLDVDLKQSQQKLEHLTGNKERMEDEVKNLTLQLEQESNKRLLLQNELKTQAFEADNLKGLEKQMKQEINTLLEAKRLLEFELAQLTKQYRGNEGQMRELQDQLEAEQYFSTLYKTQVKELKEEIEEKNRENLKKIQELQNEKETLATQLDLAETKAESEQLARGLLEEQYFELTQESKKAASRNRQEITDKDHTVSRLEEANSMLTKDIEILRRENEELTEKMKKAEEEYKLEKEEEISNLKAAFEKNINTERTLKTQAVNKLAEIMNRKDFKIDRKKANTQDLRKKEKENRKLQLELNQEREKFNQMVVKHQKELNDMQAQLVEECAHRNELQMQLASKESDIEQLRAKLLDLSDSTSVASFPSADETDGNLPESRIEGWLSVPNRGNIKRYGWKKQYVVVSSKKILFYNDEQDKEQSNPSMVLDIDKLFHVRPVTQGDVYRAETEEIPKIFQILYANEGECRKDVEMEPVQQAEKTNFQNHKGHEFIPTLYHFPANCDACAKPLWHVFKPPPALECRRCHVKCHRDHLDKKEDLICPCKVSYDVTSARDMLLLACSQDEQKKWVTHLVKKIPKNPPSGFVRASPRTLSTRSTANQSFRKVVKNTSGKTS

SMILES	IC50 [1] [nM]	IC50 [2] [nM]
CC(=O)N1CCC(Cn2nc(C(=O)Nc3ccc(-c4n[nH]c(=O)c5ccccc45)cc3)c3ccccc32)CC1 [Example 343, 1-((1-Acetylpiperidin-4-yl)methyl)-N-(4-(4-oxo-3,4-dihydrophthalazin-1-yl)phenyl)-1H-indazole-3-carboxamide]	0.1 to 100	0.1 to 100
O=C(Nc1ccc(-c2n[nH]c(=O)c3ccccc23)cc1)C1CC(=O)N(c2cccc(Cl)c2F)C1 (stereo not drawn) [Example 211, 1-(3-chloro-2-fluorophenyl)-5-oxo-N-[4-(4-oxo-3,4-dihydrophthalazin-1-yl)phenyl]pyrrolidine-3-carboxamide]	1000 to 50000	101 to 1000
COc1cc(-c2n[nH]c(=O)c3ccccc23)ccc1NC(=O)c1nn(CC2CCOC2)c2ccccc12 (stereo not drawn) [Example 352, N-(2-Methoxy-4-(4-oxo-3,4-dihydrophthalazin-1-yl)phenyl)-1-((tetrahydrofuran-3-yl)methyl)-1H-indazole-3-carboxamide]	1000 to 50000	101 to 1000
CN(C)c1ccc(C(=O)Nc2ccc3c(c2)N(C(=O)Cc2ccc(-c4n[nH]c(=O)c5ccccc45)cc2)CC3)cc1 [Example 300, 4-(Dimethylamino)-N-(1-(2-(4-(4-oxo-3,4-dihydrophthalazin-1-yl)phenyl)acetyl)indolin-6-yl)benzamide]	0.1 to 100	0.1 to 100
COc1ccc(N2CCN(C(=O)Cc3ccc(-c4n[nH]c(=O)c5ccccc45)cc3)CC2)cc1 [Example 16, 4-(4-{2-[4-(4-methoxyphenyl)piperazin-1-yl]-2-oxoethyl}phenyl)-1,2-dihydrophthalazin-1-one]	1000 to 50000	1000 to 50000
CC(C)n1nc(C(=O)Nc2ccc(-c3n[nH]c(=O)c4ccccc34)c(CO)c2)c2ccccc21 [Example 364, N-(3-(Hydroxymethyl)-4-(4-oxo-3,4-dihydrophthalazin-1-yl)phenyl)-1-isopropyl-1H-indazole-3-carboxamide]	101 to 1000	0.1 to 100
O=C(Nc1ccc(-c2n[nH]c(=O)c3ccccc23)cc1)C1Cc2ccccc2C1 [Example 44, N-(4-(4-Oxo-3,4-dihydrophthalazin-1-yl)phenyl)-2,3-dihydro-1H-indene-2-carboxamide]	1000 to 50000	0.1 to 100
O=C(Nc1ccc(-c2n[nH]c(=O)c3ccccc23)cc1)c1nn(CC2CCOCC2)c2ccccc12 [Example 150, 1-(oxan-4-ylmethyl)-N-[4-(4-oxo-3,4-dihydrophthalazin-1-yl)phenyl]-1H-indazole-3-carboxamide]	0.1 to 100	0.1 to 100
O=C(Nc1ccc(-c2n[nH]c(=O)c3ccccc23)cc1)c1nn(Cc2ccccn2)c2ccccc12 [Example 160, N-[4-(4-oxo-3,4-dihydrophthalazin-1-yl)phenyl]-1-(pyridin-2-ylmethyl)-1H-indazole-3-carboxamide]	0.1 to 100	0.1 to 100
CC(C(=O)N1Cc2ccccc2C1)c1ccc(-c2n[nH]c(=O)c3ccccc23)cc1 (stereo not drawn) [Example 43, 4-(4-(1-(Isoindolin-2-yl)-1-oxopropan-2-yl)phenyl)phthalazin-1(2H)-one]	1000 to 50000	101 to 1000
Cc1cc(NC(=O)c2cc(C(C)(C)C)n(C)n2)ccc1-c1n[nH]c(=O)c2ccccc12 [Example 395, 5-(tert-Butyl)-1-methyl-N-(3-methyl-4-(4-oxo-3,4-dihydrophthalazin-1-yl)phenyl)-1H-pyrazole-3-carboxamide]	0.1 to 100	0.1 to 100
COc1ccc(-n2nnc(C)c2C(=O)Nc2ccc(-c3n[nH]c(=O)c4ccccc34)cc2)cc1 [Example 402, 1-(4-Methoxyphenyl)-4-methyl-N-(4-(4-oxo-3,4-dihydrophthalazin-1-yl)phenyl)-1H-1,2,3-triazole-5-carboxamide]	101 to 1000	0.1 to 100
O=c1[nH]nc(-c2ccc(Nc3ncc4ccccc4n3)cc2)c2ccccc12 [Example 78, 4-{4-[(Quinazolin-2-yl)amino]phenyl}-1,2-dihydrophthalazin-1-one]	101 to 1000	0.1 to 100
O=C(Nc1ccc(-c2n[nH]c(=O)c3ccccc23)cc1)c1cnn(CCCN2CCCC2)c1 [Example 399, N-(4-(4-Oxo-3,4-dihydrophthalazin-1-yl)phenyl)-1-(3-(pyrrolidin-1-yl)propyl)-1H-pyrazole-4-carboxamide]	101 to 1000	101 to 1000
O=C(Nc1ccc(-c2n[nH]c(=O)c3ccccc23)cc1)c1c[nH]c2ccncc12 [Example 166, N-[4-(4-oxo-3,4-dihydrophthalazin-1-yl)phenyl]-1H-pyrrolo[3,2-c]pyridine-3-carboxamide]	101 to 1000	0.1 to 100
O=C(Cc1ccc(-c2n[nH]c(=O)c3ccccc23)cc1)Nc1nc2ccccc2o1 [Example 10, N-(1,3-benzoxazol-2-yl)-2-[4-(4-oxo-3,4-dihydrophthalazin-1-yl)phenyl]acetamide]	101 to 1000	0.1 to 100
CCOc1ccc2c(c1)N(C(=O)Cc1ccc(-c3n[nH]c(=O)c4ccccc34)cc1)CC2 [Example 33, 4-{4-[2-(6-ethoxy-2,3-dihydro-1H-indol-1-yl)-2-oxoethyl]phenyl}-1,2-dihydrophthalazin-1-one]	0.1 to 100	0.1 to 100

SMILES	IC50 [1] [nM]	IC50 [2] [nM]
O=C(Nc1ccc(-c2n[nH]c(=O)c3ccccc23)cc1)c1nn(Cc2ccncc2)c2ccccc12 [Example 165, N-[4-(4-oxo-3,4-dihydrophthalazin-1-yl)phenyl]-1-(pyridin-4-ylmethyl)-1H-indazole-3-carboxamide]	0.1 to 100	0.1 to 100
Cc1nn(-c2ccccc2)cc1C(=O)Nc1ccc(-c2n[nH]c(=O)c3ccccc23)cc1 [Example 228, 3-methyl-N-[4-(4-oxo-3,4-dihydrophthalazin-1-yl)phenyl]-1-phenyl-1H-pyrazole-4-carboxamide]	0.1 to 100	0.1 to 100
O=C(Nc1ccc(-c2n[nH]c(=O)c3ccccc23)cc1)c1cn2c(n1)CCCC2 [Example 134, N-[4-(4-oxo-3,4-dihydrophthalazin-1-yl)phenyl]-5H,6H,7H,8H-imidazo[1,2-a]pyridine-2-carboxamide]	101 to 1000	0.1 to 100
Cc1cc(CC(=O)N2CCc3ccccc32)ccc1-c1c[nH]c(=O)c2ccccc12 [Example 264, 4-(4-(2-(Indolin-1-yl)-2-oxoethyl)-2-methylphenyl)isoquinolin-1(2H)-one]	0.1 to 100	0.1 to 100
Cn1nc(C2CC2)cc1C(=O)Nc1ccc(-c2n[nH]c(=O)c3ccccc23)cc1 [Example 407, 3-Cyclopropyl-1-methyl-N-(4-(4-oxo-3,4-dihydrophthalazin-1-yl)phenyl)-1H-pyrazole-5-carboxamide]	0.1 to 100	0.1 to 100
Cc1ccc(N2CC(C(=O)Nc3ccc(-c4n[nH]c(=O)c5ccccc45)cc3)CC2=O)cc1 (stereo not drawn) [Example 210, 1-(4-methylphenyl)-5-oxo-N-[4-(4-oxo-3,4-dihydrophthalazin-1-yl)phenyl]pyrrolidine-3-carboxamide]	101 to 1000	101 to 1000
CN(C)c1cccc(C(=O)Nc2ccc(-c3c[nH]c(=O)c4ccccc34)cc2)c1 [Example 244, 3-(Dimethylamino)-N-[4-(1-oxo-1,2-dihydroisoquinolin-4-yl)phenyl]benzamide]	0.1 to 100	0.1 to 100
O=C(Cc1ccc(-c2n[nH]c(=O)c3ccccc23)cc1)Nc1ccc2c(c1)OCCO2 [Example 24, N-(2,3-dihydro-1,4-benzodioxin-6-yl)-2-[4-(4-oxo-3,4-dihydrophthalazin-1-yl)phenyl]acetamide]	101 to 1000	0.1 to 100
O=C(Cc1ccc(-c2n[nH]c(=O)c3ccccc23)cc1)N1CCc2ccc(C(F)(F)F)cc21 [Example 35, 4-(4-{2-oxo-2-[6-(trifluoromethyl)-2,3-dihydro-1H-indol-1-yl]ethyl}phenyl)-1,2-dihydrophthalazin-1-one]	101 to 1000	0.1 to 100
CCc1nc2ncccn2c1C(=O)Nc1ccc(-c2n[nH]c(=O)c3ccccc23)cc1 [Example 140, 2-ethyl-N-[4-(4-oxo-3,4-dihydrophthalazin-1-yl)phenyl]imidazo[1,2-a]pyrimidine-3-carboxamide]	0.1 to 100	0.1 to 100
Cn1nc2ccccc2c1C(=O)Nc1ccc(-c2n[nH]c(=O)c3ccccc23)cc1 [Example 131, 2-methyl-N-[4-(4-oxo-3,4-dihydrophthalazin-1-yl)phenyl]-2H-indazole-3-carboxamide]	0.1 to 100	0.1 to 100
O=C(Cc1ccc(-c2n[nH]c(=O)c3ccccc23)cc1)Nc1noc2c1CCCC2 [Example 276, 2-[4-(4-oxo-3,4-dihydrophthalazin-1-yl)phenyl]-N-(4,5,6,7-tetrahydro-1,2-benzoxazol-3-yl)acetamide]	1000 to 50000	0.1 to 100
Cc1cc(NC(=O)c2onc3ccccc23)ccc1-c1n[nH]c(=O)c2ccccc12 [Example 306, N-[3-methyl-4-(4-oxo-3,4-dihydrophthalazin-1-yl)phenyl]-2,1-benzoxazole-3-carboxamide]	101 to 1000	0.1 to 100
COc1ccc2c(=O)[nH]cc(-c3ccc(NC(=O)N4CCc5ccccc54)cc3)c2c1 [Example 266, N-(4-(6-Methoxy-1-oxo-1,2-dihydroisoquinolin-4-yl)phenyl)indoline-1-carboxamide]	0.1 to 100	0.1 to 100
COc1cc(-c2n[nH]c(=O)c3ccccc23)ccc1NC(=O)c1nn(CC(C)(C)O)c2ccccc12 [Example 357, 1-(2-Hydroxy-2-methylpropyl)-N-(2-methoxy-4-(4-oxo-3,4-dihydrophthalazin-1-yl)phenyl)-1H-indazole-3-carboxamide]	1000 to 50000	101 to 1000
CC(C)c1c(C(=O)Nc2ccc(-c3n[nH]c(=O)c4ccccc34)cc2)cn2nc[nH]c(=O)c12 [Example 108, 4-oxo-N-[4-(4-oxo-3,4-dihydrophthalazin-1-yl)phenyl]-5-(propan-2-yl)-3H,4H-pyrrolo[2,1-f][1,2,4]triazine-6-carboxamide]	101 to 1000	0.1 to 100
